Assay results from paper PMC8333425, “Discovery of a dual Ras and ARF6 inhibitor from a GPCR endocytosis screen” (Nature Communications, 2021).

Experiments:
H-Ras = H-Ras (Homo sapiens, UniProt P01112); test: GST-Raf1-RBD pull-down of EGFR-mediated H-Ras activation in MDA-MB-231 cells; type: cell-based; set-up: endogenous in cells; host or cells: MDA-MB-231; settings: 50 μM
Method: Activation of ARF1, ARF6, Ras, and Rho were assessed by using GST pull-down assays. HEK293SL cells were transiently transfected with 3 µg AT1R-flag only (Ras and Rho) or along with 500 ng HA-ARF6 (ARF6) or HA-ARF1 (ARF1). Forty-eight hours later, the HEK293 or MDA-MB-231 cells were serum-starved for 4 h with DMEM containing 20 mM HEPES then pretreated with DMSO or Rasarfin (50 µM) for 30 min. Cells were then stimulated with 1 µM AngII or 100 ng/ml EGF for 0 and 2 min. Cells were then washed once with ice-cold PBS and lysed for 30 min at 4 °C in 300 µl of lysis buffer (pH 7.5, 50 mM Tris-HCl, 140 mM NaCl, 5 mM MgCl2, 10% glycerol (v/v), 1% Nonidet P-40 (v/v), 1 mM dithiothreitol) supplemented with protease inhibitors (1 mM phenylmethyl-sulfonyl fluoride (PMSF), 10 µg/ml leupeptin, 5 µg/ml aprotinin, 1 µg/ml pepstatin A) and phosphatase inhibitors (20 mM NaF, 0.025 mM pervanadate). The samples were cleared by centrifugation and 30 µl (cell lysates) was kept for assessing total protein contents. The remaining was transferred to fresh tubes with 20 µg of either GST, GST-GGA3-PBD, GST-Raf1-RBD or GST-Rhotekin-RBD coupled to glutathione resin and rotated for 1–2 h at 4 °C. […] ImageLab 5.2 software was used to quantify the digital blots as fold of the amount of pulled down protein over total protein. […]

EGFR = test: BRET concentration-response, EGFR of Fig1d source data; type: cell-based, human
B2R = test: Endosomal BRET assay of agonist-mediated B2R internalization (B2R-RlucII / Endo-rGFP); type: cell-based, human
Description: We performed a HT campaign in HEK293 cells using the bystander endosomal BRET sensor, which consists of a Renilla luciferase (RlucII)-tagged AT1R and an acceptor renilla GFP (rGFP) anchored to endosomes through an Endofin-FYVE (Endo-rGFP) domain[12]. AngII-mediated trafficking of AT1R to endosomes was screened against commercial libraries of ~115,000 small molecules (Fig. 1a and Supplementary Data 1). Because our assay is based on luminescence and fluorescence, we excluded 6610 compounds that quenched more than 50% of the luciferase or GFP signals. After excluding 5 AT1R antagonists, we conserved hit compounds blocking by more than 40%, as well as those potentiating by more than 100% receptor internalization. From this collection of 943 compounds, a second validation on AT1R internalization was performed using the same BRET assay, as well as on the agonist-mediated B2R internalization, this time using B2R-RlucII and Endo-rGFP. Only compounds that were revalidated on AT1R and affected B2R endocytosis were kept, which included forty hits (20 potentiators and 20 inhibitors) (Fig. 1b and Supplementary Data 2). We focused on inhibitors that were commercially available at the beginning of the project and tested their cell toxicity by microscopy, looking at cells expressing B2R tagged with YFP, which highlights cell contours and potential morphological changes, such as rounding up of cells following treatment with 50 μM of the compounds that may have indicated cell death. None of the inhibitors tested caused abnormal cell morphological changes when cells were treated with compounds as compared to DMSO-treated cells. Inhibitors were also assessed in terms of structure novelty, derivatization potential, and commercial availability of analogs (within 95–98% similarity from Tanimoto metric, Sci-Finder, https://scifinder-n.cas.org), for structure-activity relationship studies (SAR). They were scored 1–5, from best to worst. We excluded compounds with potential nucleophilic reactivity (e.g., Michael addition: compounds 7, 26, and 27), those reported to have biological activities (compounds 8, 20, 25, 30, and 35) and/or showing autofluorescence (compound 26). Compound 19 ranked high, but only had one other molecule with a similar structure available. Although other molecules could be interesting in their own rights as endocytosis inhibitors (e.g., compounds 1, 9, 11, 12, 13, 24, 31, and 37), we focused on compound 21 (Fig. 1c) because not only did it rank high in our analysis, but it was also the only compound with substantially more similar analogs commercially available at the time of these investigations. In the screen and the follow-up validation assay, 21 inhibited more than 50% AT1R internalization and more than 65% B2R internalization (Supplementary Data 2). […] Because β-arrestins are critically involved in GPCR endocytosis and trafficking in cells, we assessed 21’s effects on β-arrestins’ recruitment to AT1R and B2R at the PM using a BRET assay, as well as their trafficking into endosomes by microscopy.
HEK293SL cells were seeded at a density of 7.5 × 10^5 cells per 100-mm dish and 24 h later, transiently transfected as such. For receptor internalization experiments, cells were transfected with 0.12 μg AT1R-RlucII, B2R-RlucII, or β2AR-RlucII and 0.48 μg of either rGFP-CAAX (to assess removal from the PM) or rGFP-FYVE (to assess accumulation in the endosomes). For β-arrestin recruitment assays, cells were transfected with 0.48 μg of receptor-YFP along with 0.12 μg of β-arrestin-RlucII. For β-arrestin/AP-2 binding experiments, cells were transfected with 1 μg Flag-AT1R, 1 μg β2-Adaptin-YFP, and 0.12 μg β-arrestin2-RlucII. For G protein activation, cells were transfected with 3 μg of sp-Flag-AT1R along with either 4.5 μg of the Gαq-polycistronic BRET sensor or 0.24 μg of the Gαi3-RlucII and 0.6 μg of GFP10-Gγ2 and Gβ1 sensors or 0.12 μg PKN-RBD-RlucII and 0.48 μg of rGFP-CAAX. […]

Chain of H-Ras (P01112 whole entry): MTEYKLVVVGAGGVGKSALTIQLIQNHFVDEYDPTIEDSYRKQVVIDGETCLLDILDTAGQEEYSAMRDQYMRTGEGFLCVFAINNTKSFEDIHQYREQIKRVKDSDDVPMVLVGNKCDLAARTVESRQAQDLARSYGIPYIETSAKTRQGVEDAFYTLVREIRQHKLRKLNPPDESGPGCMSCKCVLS

CC(C)C(=O)N1CCN(c2ccc(NC(=O)c3cc4ccccc4o3)cc2Cl)CC1 [Compound 21]
Ras activity in MDA-MB-231 cells (pull-down) (H-Ras): inhibited | EGFR, ligand-promoted BRET (Mean) (EGFR; Log [Comp21] (M) -4.3): 103.469 percent compared to DMSO | EGFR, ligand-promoted BRET (Mean) (EGFR; Log [Comp21] (M) -4.6): 97.8054 percent compared to DMSO | EGFR, ligand-promoted BRET (Mean) (EGFR; Log [Comp21] (M) -5): 87.6772 percent compared to DMSO | EGFR, ligand-promoted BRET (Mean) (EGFR; Log [Comp21] (M) -5.3): 105.328 percent compared to DMSO | EGFR, ligand-promoted BRET (Mean) (EGFR; Log [Comp 21] (M) -6): 96.2669 percent compared to DMSO | EGFR, ligand-promoted BRET (Mean) (EGFR; Log [Comp21] (M) -6.3): 100.826 percent compared to DMSO | EGFR, ligand-promoted BRET (Mean) (EGFR; Log [Comp 21] (M) -7): 105.279 percent compared to DMSO | IC50 (B2R; Homo sapiens, BK, into endosomes, read-out: IC50 for inhibition of B2R internalization): 11 µM | B2R internalization into endosomes, ligand-promoted BRET (Mean) (B2R; Log [Comp21] (M) -4.3): 20.7288 percent compared to DMSO | B2R internalization into endosomes, ligand-promoted BRET (Mean) (B2R; Log [Comp21] (M) -4.6): 30.2526 percent compared to DMSO | B2R internalization into endosomes, ligand-promoted BRET (Mean) (B2R; Log [Comp21] (M) -5): 61.9767 percent compared to DMSO | B2R internalization into endosomes, ligand-promoted BRET (Mean) (B2R; Log [Comp21] (M) -5.3): 83.8073 percent compared to DMSO | B2R internalization into endosomes, ligand-promoted BRET (Mean) (B2R; Log [Comp 21] (M) -6): 104.977 percent compared to DMSO | B2R internalization into endosomes, ligand-promoted BRET (Mean) (B2R; Log [Comp21] (M) -6.3): 107.04 percent compared to DMSO | B2R internalization into endosomes, ligand-promoted BRET (Mean) (B2R; Log [Comp 21] (M) -7): 102.555 percent compared to DMSO | inhibition of B2R internalization (B2R; follow-up validation assay): more than 65% | B2R Inhibition (%DMSO) (B2R; one experiment, negative = potentiation): 66.5725 %DMSO
